From publication PMC5290737, “Surface mediated cooperative interactions of drugs enhance mechanical forces for antibiotic action” (Scientific Reports, 2017)
Values after ≈ are worked out from the molar mass of the structure shown. Values joined by “and” are separate entries in the source; they are usually repeats but may differ in a detail not shown here. Equal entries are not always repeated. Where two headings read alike, the source gives them in different places.

Assays:
VRR in solution = conditions: ref. 1 (Van), ref. 6 (Rist), ref. 8 (CE), ref. 2 (Ori), supplementary references, read-out: Ksurf Solution; cited from earlier work
[1] = test system: vancomycin-susceptible receptor (VSR); test: Cantilever surface stress assay, antibiotic binding to surface-bound VSR; conditions: for mechanical response (in words): 3 μM drug against VSR; for Kd: VSR on cantilever, fit of equation (2); for maximum stress data, Mean / Mean difference of stress, VSR versus VRR: 4 chips; for maximum stress data, Mean: one-way ANOVA table S5; for mechanical force (F = kΔz): against VSR on the cantilever, Fig. 6b (10 μM); for Mean difference of stress, VSR versus VRR: independent samples t-test, table S6; for mechanical response, free end deflection: Van 1000 μM against VSR
Source text: (§1) To probe different pathways of signal-transduction central to the efficacy of recognition mechanisms and therapeutic agents, we used cantilever force-based technology. Because of its nanometre strain sensitivity, this technology can directly measure the smallest changes in mechanical strain caused by specific antibiotic binding. The principles of force transduction and measurements are well established[18][19][20] and many studies focused on cantilever sensors have been published. Unlike conventional methods such as 1H–NMR spectroscopy, enzyme-linked immunosorbent assays (ELISA)[29] or surface plasmon resonance (SPR)[30] which measure optical signatures of chemical binding, cantilever technology has the capacity to resolve forces at the level of individual hydrogen bonds, making it uniquely suited to provide important insight into force transduction mechanisms, such as cell wall strain in response to antibiotic binding. Moreover, in contrast to direct current or low-frequency signals, which cannot probe beyond electrical double layers formed by screening salts, mechanical signaling is sensitive to ligands even when they are located at distance of ~1 nm or more from the sensor surface (Fig. 1d). Measurements were performed using cantilevers functionalized with self-assembled monolayers (SAM) of VSR, VRR or reference polyethylene glycol (PEG) (see methods & materials, Supplementary Information). The specificity of mechanical signaling was achieved by performing measurements in differential mode, where the bending response of the reference PEG-coated cantilevers, (known to reduce nonspecific drug adsorption[8][14][34]) was subtracted from VSR- and VRR-coated cantilever signals (see cantilever measurement procedure, method section).
(§2) Thus far, we have discussed the impact of near-membrane layer on the association kinetics, mechanical force transduction, specificity of molecular recognition and microbial susceptibility. To gain mechanistic insight (Fig. 7a,b), we averaged measurements for each drug-target interaction over four separate chips and the results are summarized in Fig. 7c,d. […] The mechanical signaling response follows an s-shaped curve undergoing its steepest rise at N ~1/Ksurf before reaching a plateau when the binding sites are fully occupied (Fig. 7c,d). To calculate Ksurf, we used equation (2)[14], based on the conventional Hill adsorption model.
(§3) Here, Ksurf is raised to the power n to ensure that it maintains the dimension of concentration as n varies. Setting n = 1 yields the Langmuir isotherm where the reactions occur independently, while n > 1 corresponds to positive co-operative polyvalent interactions and n < 1 is a measure of negative co-operativity. In Fig. 7c,d, we find that the mechanical response at VSR levels off at 50 μM concentration for all antibiotics. In contrast, for the drug-resistant VRR a concentration of more than 1000 μM of Van, Rist or CE was required to reach indistinguishable maximum signals. The outcome of the fit using three parameters (n, Ksurf and σmax) is summarized in Supplementary Fig. 2. The calculated Ksurf for Ori binding to VSR is 40 ± 10 nM, which is 25 times stronger than for Van where Ksurf is 1.0 ± 0.3 μM. The Ksurf of Ori against VRR is 70 ± 10 nM, an astonishing 11,000 times stronger than for Van where Ksurf is 800 ± 300 μM. As a further measurement control and to confirm the accuracy of surface binding affinity, we used a commercially available SPR method (Fig. 7e,f and Supplementary SPR sensor chip functionalization procedure), where the detection of ligands is at a single planar metal surface.
(§4) The modified cantilever chip was mounted in a sealed liquid cell. The alignment of each light source onto the free end of each cantilever was confirmed by heating liquid chamber to 1 °C rise. […]

[2] = test system: methicillin-susceptible Staphylococcus aureus (MSSA) ATCC 29213; test: MIC by broth microdilution (CLSI M07-A8), with PS80; type: cell-based
Method: Determination of MIC values to methicillin-susceptible Staphylococcus aureus (MSSA).
Minimum Inhibitory Concentration (MIC) is defined as the lowest concentration of antibacterial agent required to inhibit growth of a microorganism after incubation. The antibiotics vancomycin (Van) and ristomycin (Rist) were obtained from Sigma-Aldrich while chloroeremomycin (CE) and oritavancin (Ori) were obtained from the Medicine Company Inc., U.S.A. To prepare antibiotic stock solutions for MICs assay, 5 mg/ml of each drug was dissolved in water containing an appropriate volume of 0.002% polysorbate-80 or PS80 obtained from Sigma-Aldrich which corresponds to 20 µM to eliminate nonspecific interactions of drugs to surfaces particularly for Ori which is known to bind to glass and plastics13. Microbiological broth with PS80 maintained at 20 µM was used in the drug dilution steps until the required final (assay) concentration. Diluted concentrations of each drug were assayed by adding an inoculum of methicillin-susceptible Staphylococcus aureus (MSSA) ATCC 29213 cells and the MIC determined by broth microdilution according to Clinical Laboratory Standards Institute (CLSI) methodology M07-A8 (CLSI 2009a)14. The results as shown in Supplementary Table S2 for each antibiotic against clinical isolate of MSSA ATCC 29213 strains conducted in the presence of […]
PS80 are within the quality control ranges defined in the guideline15. […]

VSR (Ac-VSR) in solution = conditions: cited from earlier work
[3] = test system: vancomycin susceptible E. faecalis (VSE); conditions: absence of polysorbate-80; ref. 9 (Van, CE, Ori), ref. 10 (Rist), supplementary references; cited from earlier work
[4] = test system: vancomycin-resistant receptor (VRR); test: Cantilever surface stress assay, antibiotic binding to surface-bound VRR; conditions: for mechanical response (in words): 3 μM drug against VRR; for compressive surface stress: 10 μM antibiotic against VRR; for Kd: fit of equation (2); for maximum stress data, Mean: 4 chips, one-way ANOVA table S4
Source text: as §1, §2, §3, §4

[5] = pH 7.4 sodium phosphate buffer, read-out: Ksurf Cantilever (surface equilibrium dissociation constant)
[6] = MSSA ATCC 29213, with PS80, converted from mg/l
[7] = VSR in solution, ref. 1 (Van, Rist), ref. 7 (CE), ref. 2 (Ori), supplementary references, read-out: Ksurf Solution
[8] = solution, read-out: binding affinity against Ac-VSR
[9] = VRR on cantilever, pH 7.4 sodium phosphate buffer, read-out: Ksurf Cantilever (surface equilibrium dissociation constant)

Row | Structure (SMILES) | Kd (VRR in solution) [µM] | mechanical response (in words) [1] | Kd [1, 5] [µM] | maximum stress data, Mean ([1]; VSR) | mechanical force (F = kΔz) [1] | Mean difference of stress, VSR versus VRR [1] | MIC [2, 6] [µM] | MIC ([2]; Staphylococcus aureus) | Kd (VSR (Ac-VSR) in solution; [7]) [µM] | Kd (VSR (Ac-VSR) in solution; [8]) [µM] | MIC VSE [3] [µg/mL] | mechanical response (in words) [4] | compressive surface stress [4] | Kd [4, 9] [µM] | maximum stress data, Mean ([4]; VRR) | also measured
1 | CN[C@H](CC(C)C)C(=O)N[C@H]1C(=O)N[C@@H](CC(N)=O)C(=O)N[C@H]2C(=O)N[C@H]3C(=O)N[C@H](C(=O)N[C@H](C(=O)O)c4cc(O)cc(O)c4-c4cc3ccc4O)[C@H](O[C@H]3C[C@](C)(N)[C@@H](O)[C@H](C)O3)c3ccc(c(Cl)c3)Oc3cc2cc(c3O[C@@H]2O[C@H](CO)[C@@H](O)[C@H](O)[C@H]2O[C@H]2C[C@](C)(NCc3ccc(-c4ccc(Cl)cc4)cc3)[C@@H](O)[C@H](C)O2)Oc2ccc(cc2Cl)[C@H]1O [Ori, oritavancin] | 4200 | significantly large mechanical response | 0.04 ± 0.01 | 33.8 | ~ 3.6 nN | 13.2 | 0.03 (≈ 0.0538 µg/mL) | 0.06 µg/mL and 0.03 µM | 3.8 | ~1 | 0.25 to 2 | significantly large mechanical response | ~ 23 mNm^−1 | 0.07 ± 0.01 | 20.6 | Kd ([1]; read-out: Ksurf (cantilever)): 0.04 ± 0.01 µM; Ksurf of Ori against VSR, times stronger than for Van ([1]; ratio of cantilever Ksurf, VSR): 25 times; Kd ([4]; VRR (drug-resistant target) on cantilever, read-out: Ksurf (cantilever)): 0.07 µM; Ksurf of Ori against VRR, times stronger than for Van ([4]; ratio of cantilever Ksurf, VRR): 11,000 times; deleterious force sensitivity s = σeq/n ([4]; σeq = 23 mNm^−1, n ~10^11 receptor molecules per cantilever): ~ 20 fNm^−1
2 | CN[C@H](CC(C)C)C(=O)N[C@H]1C(=O)N[C@@H](CC(N)=O)C(=O)N[C@H]2C(=O)N[C@H]3C(=O)N[C@H](C(=O)N[C@H](C(=O)O)c4cc(O)cc(O)c4-c4cc3ccc4O)[C@H](O)c3ccc(c(Cl)c3)Oc3cc2cc(c3O[C@@H]2O[C@H](CO)[C@@H](O)[C@H](O)[C@H]2O[C@H]2C[C@](C)(N)[C@H](O)[C@H](C)O2)Oc2ccc(cc2Cl)[C@H]1O [Van, vancomycin] | 2400 | reduced overall stress transduction | 1 ± 0.3 | 33.5 | ~ 3 nN | 26.1 | 0.67 (≈ 0.971 µg/mL) | 1 µg/mL and 0.67 µM | 1 | ~1 | 0.5 to 4 | no effect | ~ 0.4 mNm^−1 | 800 | 7.4 | mechanical response, free end deflection ([1]; near-membrane layer thickness ~1 nm): ~ 220 nm; mechanical response, free end deflection ([1]; near-membrane layer thickness ~50 nm): ~ 150 nm; concentration required to reach indistinguishable maximum signals ([4]; VRR): more than 1000 μM
